According to ChEMBL document CHEMBL2074376, “Differential regulation of mdr genes in response to 2-acetylaminofluorene treatment in cultured rat and human hepatocytes” (Carcinogenesis, 1996):

Tests used:
[1] = target: ATP-dependent translocase ABCB1 (Homo sapiens, UniProt P08183); experiment: (§1) TP_TRANSPORTER: Northern blot from primary hepatocytes; assay type: functional, cell-based, Hepatocyte
[2] = target: ATP-dependent translocase ABCB1 (Rattus norvegicus, UniProt P43245); experiment: as §1; assay type: functional, cell-based, Hepatocyte
Sequence of ATP-dependent translocase ABCB1 (Rattus norvegicus, UniProt P43245) (P43245 whole entry): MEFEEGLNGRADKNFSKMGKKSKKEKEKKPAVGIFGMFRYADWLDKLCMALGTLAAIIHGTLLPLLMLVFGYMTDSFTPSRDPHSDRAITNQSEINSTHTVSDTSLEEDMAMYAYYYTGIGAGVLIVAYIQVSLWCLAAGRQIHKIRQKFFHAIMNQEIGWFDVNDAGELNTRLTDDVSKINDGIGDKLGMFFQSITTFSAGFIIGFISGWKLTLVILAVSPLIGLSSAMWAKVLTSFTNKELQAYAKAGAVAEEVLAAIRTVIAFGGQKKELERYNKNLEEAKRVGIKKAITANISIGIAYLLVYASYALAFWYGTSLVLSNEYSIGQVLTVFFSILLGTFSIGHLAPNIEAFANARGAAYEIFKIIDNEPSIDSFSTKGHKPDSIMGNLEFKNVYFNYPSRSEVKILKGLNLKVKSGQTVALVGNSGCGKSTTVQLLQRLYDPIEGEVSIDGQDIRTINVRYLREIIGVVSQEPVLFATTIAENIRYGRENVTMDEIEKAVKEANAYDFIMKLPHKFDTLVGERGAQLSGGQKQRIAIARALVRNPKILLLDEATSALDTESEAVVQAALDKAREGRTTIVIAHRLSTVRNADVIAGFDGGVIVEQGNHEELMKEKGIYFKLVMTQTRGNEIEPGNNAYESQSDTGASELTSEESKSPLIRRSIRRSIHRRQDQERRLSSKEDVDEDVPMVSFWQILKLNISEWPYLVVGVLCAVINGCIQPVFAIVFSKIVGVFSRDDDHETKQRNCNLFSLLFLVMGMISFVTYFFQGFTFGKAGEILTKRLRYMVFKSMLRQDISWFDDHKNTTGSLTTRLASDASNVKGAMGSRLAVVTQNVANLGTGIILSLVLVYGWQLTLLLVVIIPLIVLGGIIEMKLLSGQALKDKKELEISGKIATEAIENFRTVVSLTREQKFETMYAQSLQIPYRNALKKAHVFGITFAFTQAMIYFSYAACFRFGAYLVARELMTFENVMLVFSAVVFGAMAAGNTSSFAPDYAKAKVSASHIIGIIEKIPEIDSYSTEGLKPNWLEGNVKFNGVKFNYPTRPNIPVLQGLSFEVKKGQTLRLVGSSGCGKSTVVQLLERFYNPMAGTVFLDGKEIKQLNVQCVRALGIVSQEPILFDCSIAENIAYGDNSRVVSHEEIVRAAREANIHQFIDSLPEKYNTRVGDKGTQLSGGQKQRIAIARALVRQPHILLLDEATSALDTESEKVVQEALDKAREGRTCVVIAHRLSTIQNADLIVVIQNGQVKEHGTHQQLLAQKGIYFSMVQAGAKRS

Sequence of ATP-dependent translocase ABCB1 (Homo sapiens, UniProt P08183) (P08183 whole entry): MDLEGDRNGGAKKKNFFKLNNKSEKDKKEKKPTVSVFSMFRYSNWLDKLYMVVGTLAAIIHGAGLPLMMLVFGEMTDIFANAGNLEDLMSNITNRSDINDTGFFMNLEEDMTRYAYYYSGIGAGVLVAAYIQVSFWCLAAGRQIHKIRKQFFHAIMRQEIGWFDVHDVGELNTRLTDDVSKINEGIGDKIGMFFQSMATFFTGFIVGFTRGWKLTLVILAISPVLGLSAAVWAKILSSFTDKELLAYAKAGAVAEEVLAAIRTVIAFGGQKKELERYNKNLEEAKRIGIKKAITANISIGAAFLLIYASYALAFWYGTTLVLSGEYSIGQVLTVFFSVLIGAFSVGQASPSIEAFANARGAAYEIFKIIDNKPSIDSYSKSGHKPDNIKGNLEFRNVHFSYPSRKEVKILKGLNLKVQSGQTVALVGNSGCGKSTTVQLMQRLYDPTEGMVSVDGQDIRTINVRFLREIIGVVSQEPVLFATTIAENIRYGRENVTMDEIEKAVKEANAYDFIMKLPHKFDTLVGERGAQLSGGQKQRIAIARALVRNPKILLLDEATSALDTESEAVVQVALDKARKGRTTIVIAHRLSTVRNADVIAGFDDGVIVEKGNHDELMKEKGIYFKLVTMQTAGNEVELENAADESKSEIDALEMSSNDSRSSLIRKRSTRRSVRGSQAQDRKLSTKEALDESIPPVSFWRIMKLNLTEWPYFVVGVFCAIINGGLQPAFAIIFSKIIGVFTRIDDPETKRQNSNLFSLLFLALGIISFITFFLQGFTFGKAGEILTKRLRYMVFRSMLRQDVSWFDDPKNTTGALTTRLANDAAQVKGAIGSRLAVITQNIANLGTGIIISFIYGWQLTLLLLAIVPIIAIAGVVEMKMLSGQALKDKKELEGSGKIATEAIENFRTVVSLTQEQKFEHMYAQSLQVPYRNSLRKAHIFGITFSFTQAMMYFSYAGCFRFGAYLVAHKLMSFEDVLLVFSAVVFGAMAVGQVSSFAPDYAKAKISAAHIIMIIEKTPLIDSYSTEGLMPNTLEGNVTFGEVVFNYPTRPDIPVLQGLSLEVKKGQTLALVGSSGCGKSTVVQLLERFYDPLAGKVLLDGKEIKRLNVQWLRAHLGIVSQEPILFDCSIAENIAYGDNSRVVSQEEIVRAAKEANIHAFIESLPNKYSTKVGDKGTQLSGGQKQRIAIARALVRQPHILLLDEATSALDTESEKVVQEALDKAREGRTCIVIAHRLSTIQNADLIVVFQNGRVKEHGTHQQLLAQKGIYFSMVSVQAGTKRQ

In the case of `CC(=O)Nc1ccc2c(c1)Cc1ccccc1-2` [2-ACETYLAMINOFLUORENE], the Activity [1] is reported as “is not an inducer [-]” and the Activity [2] is reported as “inducer [+]”.
